Measured values: the kinase profiling compilation of Christmann-Franck et al. (2016)

What was measured:
Experiment in all cases: KINOMEscan competition binding
Conditions in all cases: compound 10.0 µM
ACVR2A (human) = ACVR2A (human) (UniProt P27037)
ADCK4 (human) = ADCK4 (human) (UniProt Q96D53)
AURKC (human) = AURKC (human) (UniProt Q9UQB9)
BTK (human) = BTK (human) (UniProt Q06187)
CAMK2D (human) = CAMK2D (human) (UniProt Q13557)
CAMK4 (human) = CAMK4 (human) (UniProt Q16566)
CAMKK1 (human) = CAMKK1 (human) (UniProt Q8N5S9)
CDK16 (human) = CDK16 (human) (UniProt Q00536)
CDK5 (human) = CDK5 (human) (UniProt Q00535)
CDKL5 (human) = CDKL5 (human) (UniProt O76039)
CDKL5 (human), sequence (O76039 whole entry, looked up): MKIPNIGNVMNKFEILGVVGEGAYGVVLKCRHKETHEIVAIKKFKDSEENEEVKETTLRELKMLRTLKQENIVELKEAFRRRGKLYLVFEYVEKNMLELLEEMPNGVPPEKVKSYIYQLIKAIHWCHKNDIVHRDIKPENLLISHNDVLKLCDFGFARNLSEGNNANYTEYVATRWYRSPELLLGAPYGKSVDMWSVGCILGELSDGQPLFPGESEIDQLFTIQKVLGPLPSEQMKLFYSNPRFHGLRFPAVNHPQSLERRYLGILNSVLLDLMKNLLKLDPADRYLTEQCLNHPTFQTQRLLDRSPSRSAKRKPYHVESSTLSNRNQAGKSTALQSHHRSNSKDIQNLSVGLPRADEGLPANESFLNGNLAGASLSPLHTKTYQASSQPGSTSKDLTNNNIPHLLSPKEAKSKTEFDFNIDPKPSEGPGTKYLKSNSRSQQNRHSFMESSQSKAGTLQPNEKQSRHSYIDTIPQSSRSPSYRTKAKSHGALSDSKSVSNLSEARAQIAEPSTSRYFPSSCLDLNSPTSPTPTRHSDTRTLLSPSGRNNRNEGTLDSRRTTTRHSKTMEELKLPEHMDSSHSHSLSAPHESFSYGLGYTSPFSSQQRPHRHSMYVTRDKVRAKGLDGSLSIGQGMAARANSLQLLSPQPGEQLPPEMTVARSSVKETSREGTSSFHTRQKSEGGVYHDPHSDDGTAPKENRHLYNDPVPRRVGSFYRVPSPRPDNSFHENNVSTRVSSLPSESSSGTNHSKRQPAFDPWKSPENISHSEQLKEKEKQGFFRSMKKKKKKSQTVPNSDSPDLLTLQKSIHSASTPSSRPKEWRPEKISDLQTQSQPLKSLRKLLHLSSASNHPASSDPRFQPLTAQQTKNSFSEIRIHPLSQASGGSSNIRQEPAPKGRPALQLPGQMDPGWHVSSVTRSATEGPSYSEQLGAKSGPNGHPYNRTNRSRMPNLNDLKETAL

DAPK3 (human) = DAPK3 (human) (UniProt O43293)
DCLK1 (human) = DCLK1 (human) (UniProt O15075)
EPHA5 (human) = EPHA5 (human) (UniProt P54756)
EPHA6 (human) = EPHA6 (human) (UniProt Q9UF33)
FGFR4 (human) = FGFR4 (human) (UniProt P22455)
FLT1 (human) = FLT1 (human) (UniProt P17948)
GSK3B (human) = GSK3B (human) (UniProt P49841)
HIPK2 (human) = HIPK2 (human) (UniProt Q9H2X6)
HIPK4 (human) = HIPK4 (human) (UniProt Q8NE63)
LATS1 (human) = LATS1 (human) (UniProt O95835)
LTK (human) = LTK (human) (UniProt P29376)
MAP2K7 (human) = MAP2K7 (human) (UniProt O14733)
MAP2K7 (human), sequence (O14733 whole entry, looked up): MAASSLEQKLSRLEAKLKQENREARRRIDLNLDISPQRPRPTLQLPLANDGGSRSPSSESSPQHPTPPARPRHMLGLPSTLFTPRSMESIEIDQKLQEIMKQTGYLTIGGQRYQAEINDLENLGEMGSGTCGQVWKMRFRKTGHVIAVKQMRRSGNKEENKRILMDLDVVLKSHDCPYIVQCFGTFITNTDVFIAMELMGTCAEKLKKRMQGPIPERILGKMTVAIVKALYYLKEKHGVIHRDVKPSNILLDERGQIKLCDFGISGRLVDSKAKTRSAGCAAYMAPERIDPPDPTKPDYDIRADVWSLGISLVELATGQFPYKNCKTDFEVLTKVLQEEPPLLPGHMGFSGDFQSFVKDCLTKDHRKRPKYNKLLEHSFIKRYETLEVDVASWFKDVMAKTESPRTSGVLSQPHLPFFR

MAP3K1 (human) = MAP3K1 (human) (UniProt Q13233)
MAPK14 (human) = MAPK14 (human) (UniProt Q16539)
MATK (human) = MATK (human) (UniProt P42679)
[1] = system: MET (human), P08581 [M1250T]
MST4 (human) = MST4 (human) (UniProt Q9P289)
MYLK3 (human) = MYLK3 (human) (UniProt Q32MK0)
NEK4 (human) = NEK4 (human) (UniProt P51957)
[2] = system: PIK3CA (human), P42336 [E542K]
PIK3CA (human), P42336 [E542K], sequence (P42336 whole entry E542K, looked up): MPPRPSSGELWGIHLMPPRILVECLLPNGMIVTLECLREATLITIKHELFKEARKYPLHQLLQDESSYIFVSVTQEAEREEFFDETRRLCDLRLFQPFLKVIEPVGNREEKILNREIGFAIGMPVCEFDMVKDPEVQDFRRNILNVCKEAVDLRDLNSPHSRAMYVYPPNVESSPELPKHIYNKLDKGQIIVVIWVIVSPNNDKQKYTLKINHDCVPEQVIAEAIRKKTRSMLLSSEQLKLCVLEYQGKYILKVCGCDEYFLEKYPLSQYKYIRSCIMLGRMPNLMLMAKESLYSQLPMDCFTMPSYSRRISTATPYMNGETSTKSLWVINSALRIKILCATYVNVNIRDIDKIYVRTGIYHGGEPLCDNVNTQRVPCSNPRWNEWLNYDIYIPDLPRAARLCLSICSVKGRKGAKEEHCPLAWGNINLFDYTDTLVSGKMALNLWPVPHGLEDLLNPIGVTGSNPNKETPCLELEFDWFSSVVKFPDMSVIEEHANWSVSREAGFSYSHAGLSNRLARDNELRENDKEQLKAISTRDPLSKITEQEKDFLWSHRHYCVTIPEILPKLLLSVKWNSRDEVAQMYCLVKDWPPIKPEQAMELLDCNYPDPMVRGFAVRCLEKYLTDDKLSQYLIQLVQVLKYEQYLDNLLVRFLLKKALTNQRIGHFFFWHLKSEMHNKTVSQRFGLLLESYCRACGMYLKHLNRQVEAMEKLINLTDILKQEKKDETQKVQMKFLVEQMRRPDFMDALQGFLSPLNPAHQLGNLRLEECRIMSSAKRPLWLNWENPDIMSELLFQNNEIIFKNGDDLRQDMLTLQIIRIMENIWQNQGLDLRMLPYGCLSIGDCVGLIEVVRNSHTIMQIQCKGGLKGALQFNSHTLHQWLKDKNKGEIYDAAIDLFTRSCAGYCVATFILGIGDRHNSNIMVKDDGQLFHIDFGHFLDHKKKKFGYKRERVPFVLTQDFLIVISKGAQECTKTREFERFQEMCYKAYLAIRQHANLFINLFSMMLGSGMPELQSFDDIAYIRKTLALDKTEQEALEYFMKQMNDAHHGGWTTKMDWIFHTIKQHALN

PIM2 (human) = PIM2 (human) (UniProt Q9P1W9)
PRKCD (human) = PRKCD (human) (UniProt Q05655)
PTK2B (human) = PTK2B (human) (UniProt Q14289)
ROCK1 (human) = ROCK1 (human) (UniProt Q13464)
ROCK2 (human) = ROCK2 (human) (UniProt O75116)
SIK3 (human) = SIK3 (human) (UniProt Q9Y2K2)
SNRK (human) = SNRK (human) (UniProt Q9NRH2)
SNRK (human), sequence (Q9NRH2 whole entry, looked up): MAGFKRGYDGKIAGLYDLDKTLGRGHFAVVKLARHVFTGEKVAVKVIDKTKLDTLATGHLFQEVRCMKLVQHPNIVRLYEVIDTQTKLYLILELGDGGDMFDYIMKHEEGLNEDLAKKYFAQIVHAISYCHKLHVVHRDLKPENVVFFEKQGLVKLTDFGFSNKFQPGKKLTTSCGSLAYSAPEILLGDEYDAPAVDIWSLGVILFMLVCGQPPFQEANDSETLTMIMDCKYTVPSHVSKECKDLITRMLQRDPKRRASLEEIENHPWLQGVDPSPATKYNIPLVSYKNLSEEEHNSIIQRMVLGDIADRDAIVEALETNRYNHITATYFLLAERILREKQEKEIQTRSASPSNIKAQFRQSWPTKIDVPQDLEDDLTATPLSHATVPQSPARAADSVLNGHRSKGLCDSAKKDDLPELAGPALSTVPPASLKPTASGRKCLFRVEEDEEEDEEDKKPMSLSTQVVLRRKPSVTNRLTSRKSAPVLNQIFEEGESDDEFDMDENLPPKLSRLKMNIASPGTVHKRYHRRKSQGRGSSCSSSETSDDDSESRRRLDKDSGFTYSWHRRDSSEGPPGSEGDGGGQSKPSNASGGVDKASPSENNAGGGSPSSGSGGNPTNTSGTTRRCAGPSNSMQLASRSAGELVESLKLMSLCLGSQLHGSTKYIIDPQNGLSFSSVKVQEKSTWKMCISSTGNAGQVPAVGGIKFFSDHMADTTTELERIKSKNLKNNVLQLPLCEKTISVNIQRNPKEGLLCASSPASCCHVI

STK32C (human) = STK32C (human) (UniProt Q86UX6)
TBK1 (human) = TBK1 (human) (UniProt Q9UHD2)
CaMK1 (human) = CaMK1 (human) (UniProt Q14012)
CaMK1 (human), sequence (Q14012 whole entry, looked up): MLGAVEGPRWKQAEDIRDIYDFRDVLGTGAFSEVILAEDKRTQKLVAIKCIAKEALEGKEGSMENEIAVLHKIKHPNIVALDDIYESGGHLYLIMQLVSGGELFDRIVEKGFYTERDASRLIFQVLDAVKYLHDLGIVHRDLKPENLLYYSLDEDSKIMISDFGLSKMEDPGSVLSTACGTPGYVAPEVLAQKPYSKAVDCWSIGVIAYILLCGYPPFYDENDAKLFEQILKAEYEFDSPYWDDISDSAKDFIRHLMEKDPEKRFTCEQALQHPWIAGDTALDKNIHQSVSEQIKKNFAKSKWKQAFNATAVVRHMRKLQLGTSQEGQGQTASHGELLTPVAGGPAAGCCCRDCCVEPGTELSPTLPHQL

CAMK2D (human), sequence (Q13557 whole entry, looked up): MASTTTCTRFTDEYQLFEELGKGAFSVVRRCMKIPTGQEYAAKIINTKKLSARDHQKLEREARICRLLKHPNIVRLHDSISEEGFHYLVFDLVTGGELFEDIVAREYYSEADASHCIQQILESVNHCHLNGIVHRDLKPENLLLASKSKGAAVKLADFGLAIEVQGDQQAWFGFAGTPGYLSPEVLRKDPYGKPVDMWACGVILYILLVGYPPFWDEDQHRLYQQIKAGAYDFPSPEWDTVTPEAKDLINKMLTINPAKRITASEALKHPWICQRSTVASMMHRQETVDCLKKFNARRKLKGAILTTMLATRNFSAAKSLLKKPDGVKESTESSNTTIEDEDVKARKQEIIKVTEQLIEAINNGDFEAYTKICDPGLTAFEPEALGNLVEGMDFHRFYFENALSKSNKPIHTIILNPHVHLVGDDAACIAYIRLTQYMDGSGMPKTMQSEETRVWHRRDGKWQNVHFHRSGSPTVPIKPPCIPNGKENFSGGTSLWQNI
AURKC (human), sequence (Q9UQB9 whole entry, looked up): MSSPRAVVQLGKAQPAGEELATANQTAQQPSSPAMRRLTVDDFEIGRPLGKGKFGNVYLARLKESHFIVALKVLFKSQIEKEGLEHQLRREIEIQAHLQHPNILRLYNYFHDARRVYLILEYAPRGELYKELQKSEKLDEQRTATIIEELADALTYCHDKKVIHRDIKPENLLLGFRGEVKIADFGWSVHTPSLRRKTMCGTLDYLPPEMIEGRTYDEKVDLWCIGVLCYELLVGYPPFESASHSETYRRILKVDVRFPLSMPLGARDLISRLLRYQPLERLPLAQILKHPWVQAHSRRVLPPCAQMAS
CAMK4 (human), sequence (Q16566 whole entry, looked up): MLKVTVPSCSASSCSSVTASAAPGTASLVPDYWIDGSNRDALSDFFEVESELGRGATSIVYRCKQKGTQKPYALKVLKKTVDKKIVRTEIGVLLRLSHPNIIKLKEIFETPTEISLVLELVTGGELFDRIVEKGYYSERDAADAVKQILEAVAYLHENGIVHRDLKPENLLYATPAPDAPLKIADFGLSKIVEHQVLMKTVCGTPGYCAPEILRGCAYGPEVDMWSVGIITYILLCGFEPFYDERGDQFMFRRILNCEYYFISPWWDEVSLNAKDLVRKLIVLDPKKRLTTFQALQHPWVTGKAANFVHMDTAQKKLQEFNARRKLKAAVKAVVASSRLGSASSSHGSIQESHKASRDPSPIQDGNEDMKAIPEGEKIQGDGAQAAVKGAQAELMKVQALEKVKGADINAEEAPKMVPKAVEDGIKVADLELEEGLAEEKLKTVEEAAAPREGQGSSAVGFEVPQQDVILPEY

CCCS(=O)(=O)Nc1ccc(F)c(C(=O)c2c[nH]c3ncc(Cl)cc23)c1F
kinase still bound, per cent of control (ACVR2A (human)): 100%
kinase still bound, per cent of control (ADCK4 (human)): 100%
kinase still bound, per cent of control (AURKC (human)): 100%
kinase still bound, per cent of control (BTK (human)): 52%
kinase still bound, per cent of control (CAMK2D (human)): 99%
kinase still bound, per cent of control (CAMK4 (human)): 100%
kinase still bound, per cent of control (CAMKK1 (human)): 75%
kinase still bound, per cent of control (CDK16 (human)): 68%
kinase still bound, per cent of control (CDK5 (human)): 57%
kinase still bound, per cent of control (CDKL5 (human)): 92%
kinase still bound, per cent of control (DAPK3 (human)): 85%
kinase still bound, per cent of control (DCLK1 (human)): 52%
kinase still bound, per cent of control (EPHA5 (human)): 100%
kinase still bound, per cent of control (EPHA6 (human)): 100%
kinase still bound, per cent of control (FGFR4 (human)): 100%
kinase still bound, per cent of control (FLT1 (human)): 28%
kinase still bound, per cent of control (GSK3B (human)): 100%
kinase still bound, per cent of control (HIPK2 (human)): 20%
kinase still bound, per cent of control (HIPK4 (human)): 34%
kinase still bound, per cent of control (LATS1 (human)): 86%
kinase still bound, per cent of control (LTK (human)): 34%
kinase still bound, per cent of control (MAP2K7 (human)): 83%
kinase still bound, per cent of control (MAP3K1 (human)): 73%
kinase still bound, per cent of control (MAPK14 (human)): 60%
kinase still bound, per cent of control (MATK (human)): 90%
kinase still bound, per cent of control [1]: 78%
kinase still bound, per cent of control (MST4 (human)): 96%
kinase still bound, per cent of control (MYLK3 (human)): 41%
kinase still bound, per cent of control (NEK4 (human)): 71%
kinase still bound, per cent of control [2]: 100%
kinase still bound, per cent of control (PIM2 (human)): 80%
kinase still bound, per cent of control (PRKCD (human)): 100%
kinase still bound, per cent of control (PTK2B (human)): 83%
kinase still bound, per cent of control (ROCK1 (human)): 77%
kinase still bound, per cent of control (ROCK2 (human)): 81%
kinase still bound, per cent of control (SIK3 (human)): 100%
kinase still bound, per cent of control (SNRK (human)): 100%
kinase still bound, per cent of control (STK32C (human)): 86%
kinase still bound, per cent of control (TBK1 (human)): 100%

CNC(=O)Nc1ccc(-c2nc(N3CC4CCC(C3)O4)c3cnn(C4CCC5(CC4)OCCO5)c3n2)cc1
kinase still bound, per cent of control (ACVR2A (human)): 78%
kinase still bound, per cent of control (ADCK4 (human)): 100%
kinase still bound, per cent of control (AURKC (human)): 86%
kinase still bound, per cent of control (BTK (human)): 90%
kinase still bound, per cent of control (CAMK2D (human)): 100%
kinase still bound, per cent of control (CAMK4 (human)): 100%
kinase still bound, per cent of control (CAMKK1 (human)): 100%
kinase still bound, per cent of control (CDK16 (human)): 100%
kinase still bound, per cent of control (CDK5 (human)): 88%
kinase still bound, per cent of control (CDKL5 (human)): 79%
kinase still bound, per cent of control (CaMK1 (human)): 93%
kinase still bound, per cent of control (DAPK3 (human)): 100%
kinase still bound, per cent of control (DCLK1 (human)): 100%
kinase still bound, per cent of control (EPHA5 (human)): 92%
kinase still bound, per cent of control (EPHA6 (human)): 98%
kinase still bound, per cent of control (FGFR4 (human)): 62%
kinase still bound, per cent of control (FLT1 (human)): 92%
kinase still bound, per cent of control (GSK3B (human)): 69%
kinase still bound, per cent of control (HIPK2 (human)): 100%
kinase still bound, per cent of control (HIPK4 (human)): 100%
kinase still bound, per cent of control (LATS1 (human)): 95%
kinase still bound, per cent of control (LTK (human)): 68%
kinase still bound, per cent of control (MAP2K7 (human)): 100%
kinase still bound, per cent of control (MAP3K1 (human)): 58%
kinase still bound, per cent of control (MAPK14 (human)): 100%
kinase still bound, per cent of control (MATK (human)): 100%
kinase still bound, per cent of control [1]: 87%
kinase still bound, per cent of control (MST4 (human)): 70%
kinase still bound, per cent of control (MYLK3 (human)): 100%
kinase still bound, per cent of control (NEK4 (human)): 82%
kinase still bound, per cent of control [2]: 14%
kinase still bound, per cent of control (PIM2 (human)): 74%
kinase still bound, per cent of control (PRKCD (human)): 100%
kinase still bound, per cent of control (PTK2B (human)): 100%
kinase still bound, per cent of control (ROCK1 (human)): 100%
kinase still bound, per cent of control (ROCK2 (human)): 100%
kinase still bound, per cent of control (SIK3 (human)): 35%
kinase still bound, per cent of control (SNRK (human)): 100%
kinase still bound, per cent of control (STK32C (human)): 90%
kinase still bound, per cent of control (TBK1 (human)): 82%

COc1cc2c(Nc3ccc(NC(=O)c4ccccc4)cc3)ncnc2cc1OCCCN1CCOCC1
kinase still bound, per cent of control (ACVR2A (human)): 100%
kinase still bound, per cent of control (ADCK4 (human)): 66%
kinase still bound, per cent of control (AURKC (human)): 23%
kinase still bound, per cent of control (BTK (human)): 7.3%
kinase still bound, per cent of control (CAMK2D (human)): 100%
kinase still bound, per cent of control (CAMK4 (human)): 100%
kinase still bound, per cent of control (CAMKK1 (human)): 76%
kinase still bound, per cent of control (CDK16 (human)): 64%
kinase still bound, per cent of control (CDKL5 (human)): 46%
kinase still bound, per cent of control (CaMK1 (human)): 55%
kinase still bound, per cent of control (DAPK3 (human)): 100%
kinase still bound, per cent of control (DCLK1 (human)): 73%
kinase still bound, per cent of control (EPHA5 (human)): 100%
kinase still bound, per cent of control (EPHA6 (human)): 85%
kinase still bound, per cent of control (FGFR4 (human)): 100%
kinase still bound, per cent of control (FLT1 (human)): 56%
kinase still bound, per cent of control (GSK3B (human)): 70%
kinase still bound, per cent of control (HIPK2 (human)): 50%
kinase still bound, per cent of control (HIPK4 (human)): 4.9%
kinase still bound, per cent of control (LATS1 (human)): 100%
kinase still bound, per cent of control (LTK (human)): 6.3%
kinase still bound, per cent of control (MAP2K7 (human)): 100%
kinase still bound, per cent of control (MAP3K1 (human)): 92%
kinase still bound, per cent of control (MAPK14 (human)): 100%
kinase still bound, per cent of control (MATK (human)): 100%
kinase still bound, per cent of control (MST4 (human)): 44%
kinase still bound, per cent of control (MYLK3 (human)): 100%
kinase still bound, per cent of control (NEK4 (human)): 57%
kinase still bound, per cent of control [2]: 100%
kinase still bound, per cent of control (PIM2 (human)): 100%
kinase still bound, per cent of control (PRKCD (human)): 100%
kinase still bound, per cent of control (PTK2B (human)): 98%
kinase still bound, per cent of control (ROCK1 (human)): 98%
kinase still bound, per cent of control (ROCK2 (human)): 34%
kinase still bound, per cent of control (SIK3 (human)): 100%
kinase still bound, per cent of control (SNRK (human)): 81%
kinase still bound, per cent of control (STK32C (human)): 100%
kinase still bound, per cent of control (TBK1 (human)): 66%

CC(=O)c1c(C)c2cnc(Nc3ccc(N4CCNCC4)cn3)nc2n(C2CCCC2)c1=O
kinase still bound, per cent of control (ADCK4 (human)): 53%
kinase still bound, per cent of control (AURKC (human)): 96%
kinase still bound, per cent of control (BTK (human)): 13%
kinase still bound, per cent of control (CAMK2D (human)): 6.8%
kinase still bound, per cent of control (CAMKK1 (human)): 20%
kinase still bound, per cent of control (CDK16 (human)): 0.2%
kinase still bound, per cent of control (CDK5 (human)): 48%
kinase still bound, per cent of control (CDKL5 (human)): 1%
kinase still bound, per cent of control (CaMK1 (human)): 35%
kinase still bound, per cent of control (DAPK3 (human)): 0.45%
kinase still bound, per cent of control (DCLK1 (human)): 2.9%
kinase still bound, per cent of control (EPHA5 (human)): 98%
kinase still bound, per cent of control (EPHA6 (human)): 96%
kinase still bound, per cent of control (FLT1 (human)): 100%
kinase still bound, per cent of control (HIPK2 (human)): 0.25%
kinase still bound, per cent of control (HIPK4 (human)): 6%
kinase still bound, per cent of control (MAP2K7 (human)): 87%
kinase still bound, per cent of control (MAP3K1 (human)): 87%
kinase still bound, per cent of control (MATK (human)): 46%
kinase still bound, per cent of control [1]: 41%
kinase still bound, per cent of control (MST4 (human)): 26%
kinase still bound, per cent of control (MYLK3 (human)): 7.6%
kinase still bound, per cent of control (NEK4 (human)): 20%
kinase still bound, per cent of control (PIM2 (human)): 52%
kinase still bound, per cent of control (PRKCD (human)): 90%
kinase still bound, per cent of control (PTK2B (human)): 31%
kinase still bound, per cent of control (ROCK1 (human)): 30%
kinase still bound, per cent of control (ROCK2 (human)): 36%
kinase still bound, per cent of control (SIK3 (human)): 100%
kinase still bound, per cent of control (SNRK (human)): 94%
kinase still bound, per cent of control (STK32C (human)): 94%
kinase still bound, per cent of control (TBK1 (human)): 47%
